What was measured:
Type in all cases: cell-based
Panc-1 and Paca2 cells = experiment: MTT relative cytotoxicity toward pancreatic cancer lines (statements on both lines together); conditions: 72 hours; for cytotoxicity toward pancreatic cancer lines: 12.5, 25 and 50 μM
Experimental: (§1) FIG. 7: Relative cytotoxicity of the AOH compounds docking with caPCNA toward cultured Panc-1 (A) and Paca2 (B) cells. Relative cytotoxicity was determined by a colorimetric assay (MTT) measuring cell viability following a 72 hour incubation with the compounds indicated. Cells were exposed to DMSO/saline (series 1) and 12.5 (series 2) 25 (series 3) and 50 (series 4) μM of the indicated drug dissolved in DMSO for 72 hours prior to performing the MTT assay.

Panc-1 cells = tested on: Panc-1 cells
Experimental: as §1
(§2) FIG. 8: 50 μM AOH-18, AOH-20, and AOH-39 were individually incubated with exponentially growing Panc-1 or Paca-2 cells for 72 hours, after which cell viability was determined colorimetrically using MTT.

Paca-2 cells = experiment: MTT cell viability assay, Paca-2 cells, 72 hours
Experimental: as §1, §2

MCF-7 cells = conditions: for selectivity of toxicity, breast cancer versus non-malignant breast cells: at concentrations lower than 100 μM (10 μM), MCF7 vs MCF-10A
Experimental: The effect that a set of in silico selected compounds had on the viability of exponentially growing cultured malignant (MCF-7) and non-malignant (MCF-10A) breast cells was determined. Exponentially growing malignant (MCF-7) and non-malignant (MCF-10A) breast cells were incubated for 72 hours with 100 μM of the indicated compounds in growth media, before cell viability was determined colorimetrically using the MTT assay. […] Relative viability was determined by comparison to the viability of the cell cultures incubated in the presence of PBS/DMSO (vehicle) control instead of compound. […] Also were identified compounds that killed: both cell types with nearly equal preference; compounds that had little or no cytotoxic effect on either cell type, and compounds that preferentially killed the non-malignant breast cells.
The short- and long-term cytotoxic effects of each of the AOH compounds was determined essentially as described below for the caPeptide and related peptides, except that the initial cell based screening was determined by incubating cells for 72 hours with 100 μM of each compound. Compounds were classified into specific categories: 1) compounds that preferentially kill breast cancer but not non-malignant breast cells; 2) compounds that appear to kill both malignant and non-malignant breast cells without preference; 3) compounds that appear to have little or no toxicity toward either type of breast cell; and 4) compounds that appear to preferentially kill non-malignant breast cells. For those compounds falling into the first category, the short-term MTT viability assay was repeated using 10 μM of the selected AOH compound.
The MTT ((3-(4,5-Dimethylthiazol-2-yl)-2,5-diphenyltetrazolium bromide) assay was performed to determine the viability of cells exposed for various lengths of time to various peptide constructs containing or related to caPeptide. This assay determines the short-term affect each of the peptides has on cell viability. caPeptide's sequence is LGIPEQEY. The MTT assay was used to monitor the cytotoxic effect various caPeptides had on the viability of human MCF-7, MDA-MB436, HCC1937^(BRCA−) and HCC1937^(BRCA+) breast cancer cells. HCC1937^(BRCA−) cells harbor a hereditary mutation in the BRCA1 gene, that results in a non-functional gene product. These cells, are the parental wild-type to the HCC1937^+ cells, which express a fully functional BRCA1 human transgene. The assay was performed by seeding equal numbers of cells (5×10^3) into each of the wells of 96-well tissue culture plates for an overnight incubation to allow the cells to attach to the plates. In the morning, the cells in each of 3 individual wells were exposed to each of the various peptide constructs at the various concentrations indicated in the figures, for periods of 24, 48 and 72 hours. The MTT assay was then performed on the cells in each of the wells to determine the relative degree to which specific peptides were cytotoxic to each of these breast cancer cell lines. Percent viability at the end of the assay we determined colorimetrically by measuring the absorbance at 405 nm of the assay products formed in each well, averaging them, and then comparing the average absorbance of these assay products formed at each individual time period for each specific concentration of a specific peptide examined to the average absorbance of the 3 wells used to determine the viability of untreated cells exposed to PBS in place of peptide. These wells containing the PBS treated cells were assigned a relative viability of 100%, based upon the average absorbance of the reaction product formed in these wells, and the viability of the cells exposed to the various peptides under specific assay conditions was determined as a percentage of the absorbance produced by these PBS treated cells.

| SMILES | cytotoxicity toward pancreatic cancer lines (Panc-1 and Paca2 cells) | CC50 (MCF-7 cells) [µM] | also measured |
| --- | --- | --- | --- |
| Cc1ccc(-n2c(C(C)N3CCNC(C)C3)nc3ccccc3c2=O)cc1 (stereo not shown) [AOH-16] | concentration dependent cytotoxicity | – | – |
| CCn1c2ccccc2c2cc(CNCc3ccccc3)ccc21 [AOH-18] | – | – | LC50 (Panc-1 cells): not achieved over the concentration range tested; LC50 (Paca-2 cells): not achieved over the concentration range tested; loss in viability of both pancreatic cell lines (Panc-1 and Paca2 cells; at the MCF-7 LC50 concentration (~3 μM)): little or no loss in viability; relative sensitivity of MCF-7 cells among compounds (MCF-7 cells; 72 hours, MTT, rank by LC50): most sensitive; selectivity of toxicity, breast cancer versus non-malignant breast cells (MCF-7 cells): selectively toxic |
| CCCCNC(=O)c1cc2oc(C)cc2n1Cc1cc(C)ccc1C [AOH-36] | – | 3 to 40 | – |
| CCN(C(=O)Nc1cccc(C(F)(F)F)c1)C(C)c1nc2ccccc2c(=O)n1-c1ccc(F)cc1 (stereo not shown) [AOH-59] | concentration dependent cytotoxicity | 3 to 40 | – |
| CCCCNC(=O)c1cc2occc2n1Cc1cc(C)ccc1C [AOH-34] | concentration dependent cytotoxicity | – | – |
| Cc1nc(C)c(Cc2ccccc2F)c(N2CCN(CC(O)C(C)C)CC2)n1 (stereo not shown) [AOH-52] | concentration dependent cytotoxicity | – | – |
| CC(C)(C)c1ccc(CNC2CCN(Cc3ccccc3)CC2)cc1 [AOH-20] | – | 3 to 40 | LC50 (Panc-1 cells): not achieved over the concentration range tested; LC50 (Paca-2 cells): not achieved over the concentration range tested; selectivity of toxicity, breast cancer versus non-malignant breast cells (MCF-7 cells): selectively toxic |
| CCNC(C)c1nc2ccccc2c(=O)n1Cc1ccccc1 (stereo not shown) [AOH-1] | concentration dependent cytotoxicity | – | – |
